From patent US6436992B1, “Use of fumaric acid derivatives” (Fumapharm AG, priority 1997, dated 2002)

System: haemagglutinin formation in mice
Assay: Inhibition of haemagglutinin formation in mice immunised with sheep erythrocytes, after peroral administration
Type: in vivo
[1] = mice, 150 mg/kg bodyweight p.o.
[2] = mice, 300 mg/kg bodyweight p.o.
[3] = mice, 600 mg/kg bodyweight p.o.

COC(=O)/C=C/C(=O)[O-].[Ca+] [Methyl hydrogen fumarate-Ca salt]
Inhibition of haemagglutinin formation in % [1]: 13% | Suppression index [1]: 0.87 | Inhibition of haemagglutinin formation in % [2]: 20% | Suppression index [2]: 0.80 | effect on haemagglutinin formation (in words) (mice, 300 mg/kg p.o.): slight reduction | Inhibition of haemagglutinin formation in % [3]: 38% | Suppression index [3]: 0.62 | suppressive effect on haemagglutinin formation (in words, over dose range) (mice, 150, 300 and 600 mg/kg p.o.): dosage-dependent suppressive effect | immuno-suppressive effect (conclusion) (mice, p.o.): significant immuno-suppressive effect
